Source: PMC6061170, “Synthesis and biological investigations of 3β-aminotropane arylamide derivatives with atypical antipsychotic profile” (Medicinal Chemistry Research, 2018)
Where “and” joins values, the source holds several entries; their conditions need not be identical. Identical values can stand only once.

What was measured:
[1] = target: T1, serotonin 5-HT2A receptors (Rattus norvegicus, UniProt P14842); design: method as in Słowiński et al. 2011, 2013; Stefanowicz et al. 2016; details: earlier lead structures, Fig. 1/Fig. 2; ref Słowiński et al. 2011, 2013; Stefanowicz et al. 2016; cited from earlier work
T1 construct: from tissue; host or cells: rat brain tissues

dopamine D2 receptors = dopamine D2 receptors (Rattus norvegicus, UniProt P61169); design: method as in Słowiński et al. 2011, 2013; Stefanowicz et al. 2016; details: earlier lead structures, Fig. 1/Fig. 2; ref Słowiński et al. 2011, 2013; Stefanowicz et al. 2016; cited from earlier work
[2] = target: T2, serotonin 5-HT1A receptors (Rattus norvegicus, UniProt P19327); details: earlier lead structures, Fig. 1/Fig. 2; ref Słowiński et al. 2011, 2013; Stefanowicz et al. 2016; cited from earlier work
T2 construct: from tissue; host or cells: rat brain tissues
T2 sequence (P19327 1-422): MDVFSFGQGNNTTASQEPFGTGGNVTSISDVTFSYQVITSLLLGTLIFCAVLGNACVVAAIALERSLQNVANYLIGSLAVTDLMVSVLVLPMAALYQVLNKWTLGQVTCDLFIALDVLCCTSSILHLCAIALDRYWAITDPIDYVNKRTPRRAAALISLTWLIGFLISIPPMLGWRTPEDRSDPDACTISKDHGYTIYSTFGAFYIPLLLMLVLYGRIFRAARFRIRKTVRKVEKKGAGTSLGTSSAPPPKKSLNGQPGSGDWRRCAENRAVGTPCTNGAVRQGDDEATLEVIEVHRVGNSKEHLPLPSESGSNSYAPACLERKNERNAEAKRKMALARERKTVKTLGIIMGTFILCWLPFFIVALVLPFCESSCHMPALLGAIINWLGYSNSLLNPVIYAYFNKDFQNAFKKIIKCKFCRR

CD-1 mice = assay: d-Amphetamine-induced hyperlocomotor activity; details: d-amphetamine alone 2.5 mg/kg s.c. 30 min before test

T1 sequence (P14842 whole entry): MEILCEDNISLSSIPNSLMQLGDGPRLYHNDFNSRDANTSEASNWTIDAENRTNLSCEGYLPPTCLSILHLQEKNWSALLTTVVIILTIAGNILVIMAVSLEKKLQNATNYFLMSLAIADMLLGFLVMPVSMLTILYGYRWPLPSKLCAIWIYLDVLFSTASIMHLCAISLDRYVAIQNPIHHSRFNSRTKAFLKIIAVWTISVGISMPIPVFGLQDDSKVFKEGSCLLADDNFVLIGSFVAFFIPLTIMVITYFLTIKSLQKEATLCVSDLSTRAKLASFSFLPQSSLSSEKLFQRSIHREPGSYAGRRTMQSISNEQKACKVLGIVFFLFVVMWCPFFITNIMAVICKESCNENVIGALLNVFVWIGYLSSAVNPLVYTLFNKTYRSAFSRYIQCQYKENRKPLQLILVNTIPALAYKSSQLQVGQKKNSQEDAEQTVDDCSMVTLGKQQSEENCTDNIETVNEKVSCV
Sequence of dopamine D2 receptors (P61169 1-415 isoform P61169-2): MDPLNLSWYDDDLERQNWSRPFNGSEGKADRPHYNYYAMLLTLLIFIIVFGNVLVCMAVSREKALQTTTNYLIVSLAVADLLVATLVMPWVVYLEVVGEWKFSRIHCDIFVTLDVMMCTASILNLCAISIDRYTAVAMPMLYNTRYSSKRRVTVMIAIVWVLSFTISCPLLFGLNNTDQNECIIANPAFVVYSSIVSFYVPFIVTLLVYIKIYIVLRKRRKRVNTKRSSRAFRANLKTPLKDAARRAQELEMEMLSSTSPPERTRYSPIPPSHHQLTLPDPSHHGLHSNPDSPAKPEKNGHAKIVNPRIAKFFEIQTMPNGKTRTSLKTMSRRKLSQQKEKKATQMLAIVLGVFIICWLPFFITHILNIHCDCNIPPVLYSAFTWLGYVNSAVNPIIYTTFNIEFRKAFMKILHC

SMILES: O=C(NC1CC2CCC(C1)N2Cc1cccc(Br)c1)c1ccc2ccccc2c1 (stereo not drawn) [R = -Br]
- Ki [1]: 106 nM

SMILES: Cc1cccc(CN2C3CCC2CC(NC(=O)c2ccc4ccccc4c2)C3)c1 (stereo not drawn) [R = -CH3]
- Ki [1]: 231 nM

SMILES: O=C(NC1CC2CCC(C1)N2Cc1ccccc1)c1ccc2ccccc2c1 (stereo not drawn) [compound A]
- Ki (dopamine D2 receptors): 82.4 nM
- Ki [2]: 304 nM
- Ki [1]: 2.5 nM

SMILES: C[C@H](N)Cc1ccccc1 [d-amphetamine, reference compound]
- Number of crossings/60 min Mean ± SEM (CD-1 mice): 6819.9 ± 1534.7; p < 0.05 vs. contr crossings/60 min and 6553.1 ± 1214.5; p < 0.001 vs. contr crossings/60 min
